# From US9637473B2, “Acrylamide derivatives as antimalarial agents” (priority 2013, dated 2017)
# Structures can show the parent of a compound that is named as a salt.
# System: P. Falciparum NF54
# Assay: Plasmodium falciparum in vitro assay ([3H]-hypoxanthine incorporation)
# Format: cell-based
# Conditions: P. Falciparum NF54, erythrocytic stages in human red blood cells, 50% human serum
# Procedure, shortened: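 Activity against the blood stages of Plasmodium falciparum growing in human red blood cells was measured by how much [3H]-hypoxanthine the parasites took up. Filters were dried, sealed in plastic foil containing 10 mL of scintillation fluid, and read on a Betaplate liquid scintillation counter. IC50 values came from sigmoidal inhibition curves fitted in Microsoft Excel.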
row,Compound,IC50 [nM]
1,"CC(C)CCN1C[C@H]2CC(N(Cc3ccc(N(C)c4ccncc4)cc3)C(=O)/C=C/c3ccc(C(F)(F)F)cc3)C[C@H]2C1 (single isomer, unassigned) [Example 68]",17

# Same assay, conditions: Plasmodium falciparum, Erythrocyte, P. Falciparum NF54, erythrocytic stages in human red blood cells, 50% human serum
row,Compound,IC50 [nM]
1,"CN(c1ccncc1)c1ccc(CN(C(=O)/C=C/c2ccc(C(F)(F)F)cc2)C2CCN(Cc3ccn4ccnc4c3)CC2)cc1 [Example 25, (E)-N-(1-Imidazo[1,2-a]pyridin-7-ylmethyl-piperidin-4-yl)-N-[4-(methyl-pyridin-4-yl-amino)-benzyl]-3-(4-trifluoromethyl-phenyl)-acrylamide]",41
2,"CN(c1ccncc1)c1ccc(CN(C(=O)/C=C/c2ccc(C(F)(F)F)cc2)C2CCN(C3CCCC3)C2)cc1 (racemic) [Example 99, (±)-(E)-N-(1-Cyclopentyl-pyrrolidin-3-yl)-N-[4-(methyl-pyridin-4-yl-amino)-benzyl]-3-(4-trifluoromethyl-phenyl)-acrylamide]",43
3,"CN(c1ccncc1)c1ccc(CN(C(=O)/C=C/c2ccccc2Cl)C2CCN(Cc3ccccc3)CC2)cc1 [Example 154, (E)-N-(1-Benzyl-piperidin-4-yl)-3-(2-chloro-phenyl)-N-[4-(methyl-pyridin-4-yl-amino)-benzyl]-acrylamide]",145
4,"CCCOc1ccc(/C=C/C(=O)N(Cc2ccc(N(C)c3ccncc3)cc2)C2CCN(Cc3ccccc3)CC2)cc1 [Example 148, (E)-N-(1-Benzyl-piperidin-4-yl)-N-[4-(methyl-pyridin-4-yl-amino)-benzyl]-3-(4-propoxy-phenyl)-acrylamide]",61
5,"CN1CCC(N(C)c2ccc(CN(C(=O)/C=C/c3ccc(C(F)(F)F)cc3)C3CCN(C4CCCC4)CC3)cn2)CC1 [Example 106, (E)-N-(1-Cyclopentyl-piperidin-4-yl)-N-{6-[methyl-(1-methyl-piperidin-4-yl)-amino]-pyridin-3-ylmethyl}-3-(4-trifluoromethyl-phenyl)-acrylamide]",348
6,"CN1CCN(c2ccc(CN(C(=O)/C=C/c3ccc(C(F)(F)F)cc3)C3CCN(C4CCCC4)CC3)cc2)CC1 [Example 200, (E)-N-(1-Cyclopentyl-piperidin-4-yl)-N-[4-(4-methyl-piperazin-1-yl)-benzyl]-3-(4-trifluoromethyl-phenyl)-acrylamide]",232
7,"Cc1cc(Nc2ccc(CN(C(=O)/C=C/c3ccc(OC(F)(F)F)cc3)C3CCN(C4CCN(C)CC4)CC3)cc2)ccn1 [Example 119, (E)-N-(1′-Methyl-[1,4′]bipiperidinyl-4-yl)-N-[4-(2-methyl-pyridin-4-ylamino)-benzyl]-3-(4-trifluoromethoxy-phenyl)-acrylamide]",46
8,"CN(c1ccncc1)c1ccc(CN(C(=O)/C=C/c2ccc(C(F)(F)F)cc2)C2CCN(Cc3ccnn3C)CC2)cc1 [Example 17, (E)-N-[1-(2-Methyl-2H-pyrazol-3-ylmethyl)-piperidin-4-yl]-N-[4-(methyl-pyridin-4-yl-amino)-benzyl]-3-(4-trifluoromethyl-phenyl)-acrylamide]",180
9,"Cc1cc(Nc2ccc(CN(C(=O)/C=C/c3ccc(C(F)(F)F)cc3)C3CCN(C4CCCC4)C3)cc2)ccn1 (racemic) [Example 101, (±)-(E)-N-(1-Cyclopentyl-pyrrolidin-3-yl)-N-[4-(2-methyl-pyridin-4-ylamino)-benzyl]-3-(4-trifluoromethyl-phenyl)-acrylamide]",43
10,"CCN(CC)Cc1cc(CN2CCC(N(Cc3ccc(Nc4ccnc(C)c4)cc3)C(=O)/C=C/c3ccc(C(F)(F)F)cc3)CC2)ccc1O [Example 54, (E)-N-[1-(3-Diethylaminomethyl-4-hydroxy-benzyl)-piperidin-4-yl]-N-[4-(2-methyl-pyridin-4-ylamino)-benzyl]-3-(4-trifluoromethyl-phenyl)-acrylamide]",< 8
11,"Cc1cc(N(C)c2ccc(CN(C(=O)/C=C/c3ccc(C(F)(F)F)cc3)C3CCN(C4CCCC4)CC3)cc2)ccn1 [Example 184, (E)-N-(1-Cyclopentyl-piperidin-4-yl)-N-{4-[methyl-(2-methyl-pyridin-4-yl)-amino]-benzyl}-3-(4-trifluoromethyl-phenyl)-acrylamide]",44
12,"CN1CCC(N2CCC(N(Cc3ccc(Nc4ccncc4)cc3)C(=O)/C=C/c3ccc(C(F)(F)F)cc3)CC2)CC1 [Example 115, (E)-N-(1′-Methyl-[1,4′]bipiperidinyl-4-yl)-N-[4-(pyridin-4-ylamino)-benzyl]-3-(4-trifluoromethyl-phenyl)-acrylamide]",82
13,"CN(c1ccncc1)c1ccc(CN(C(=O)/C=C/c2ccc(C(F)(F)F)cc2)[C@H]2CCN(C3CCCC3)C2)cc1 [Example 114, (E)-N-((S)-1-Cyclopentyl-pyrrolidin-3-yl)-N-[4-(methyl-pyridin-4-yl-amino)-benzyl]-3-(4-trifluoromethyl-phenyl)-acrylamide]",86
14,"CN(c1ccncc1)c1ccc(CN(C(=O)/C=C/c2ccc(C(F)(F)F)cc2)C2CCNCC2)cc1 [Example 1, (E)-N-[4-(Methyl-pyridin-4-yl-amino)-benzyl]-N-piperidin-4-yl-3-(4-trifluoromethyl-phenyl)-acrylamide]",121
15,"O=C(/C=C/c1ccc(C(F)(F)F)cc1)N(Cc1ccc(Nc2cncnc2)cc1)C1CCN(C2CCCC2)CC1 [Example 91, (E)-N-(1-Cyclopentyl-piperidin-4-yl)-N-[4-(pyrimidin-5-ylamino)-benzyl]-3-(4-trifluoromethyl-phenyl)-acrylamide]",291

# The next lines start with the values.
row,IC50 [nM],Compound
1,412,"O=C(/C=C/c1ccc(C(F)(F)F)cc1)N(Cc1ccc(Oc2ccncc2)cc1)C1CCN(C2CCCC2)CC1 [Example 207, (E)-N-(1-Cyclopentyl-piperidin-4-yl)-N-[4-(pyridin-4-yloxy)-benzyl]-3-(4-trifluoromethyl-phenyl)-acrylamide]"
2,303,"CC(C)N1CCC(N(Cc2cccc(Nc3ccncc3F)n2)C(=O)/C=C/c2ccc(C(F)(F)F)cc2)CC1 [Example 131, (E)-N-[6-(3-Fluoro-pyridin-4-ylamino)-pyridin-2-ylmethyl]-N-(1-isopropyl-piperidin-4-yl)-3-(4-trifluoromethyl-phenyl)-acrylamide formate]"
3,167,"CN(c1ccncc1)c1ccc(CN(C(=O)/C=C/c2ccc(C(F)(F)F)cc2)C2CCCCN(C3CCCC3)C2)cc1 (racemic) [Example 71, (±)-(E)-N-(1-cyclopentylazepan-3-yl)-N-(4-(methyl(pyridin-4-yl)amino)benzyl)-3-(4-(trifluoromethyl)phenyl)acrylamide]"
4,101,"Cc1cc(Nc2ccc(CN(C(=O)/C=C/c3ccc(C(F)(F)F)cc3)C3CCN(Cc4cccnc4)CC3)cc2)ccn1 [Example 48, (E)-N-[4-(2-Methyl-pyridin-4-ylamino)-benzyl]-N-(1-pyridin-3-ylmethyl-piperidin-4-yl)-3-(4-trifluoromethyl-phenyl)-acrylamide]"
5,96,"CC(C)N1CCN(c2ccc(CN(C(=O)/C=C/c3ccc(C(F)(F)F)cc3)C3CCN(C4CCCC4)CC3)cc2)CC1 [Example 199, (E)-N-(1-Cyclopentyl-piperidin-4-yl)-N-[4-(4-isopropyl-piperazin-1-yl)-benzyl]-3-(4-trifluoromethyl-phenyl)-acrylamide]"
6,72,"CN(c1ccncc1)c1ccc(CN(C(=O)/C=C/c2ccc(C(F)(F)F)cc2)C2CCN(Cc3ccc(C(F)(F)F)cc3)CC2)cc1 [Example 3, (E)-N-[4-(Methyl-pyridin-4-yl-amino)-benzyl]-N-[1-(4-trifluoromethyl-benzyl)-piperidin-4-yl]-3-(4-trifluoromethyl-phenyl)-acrylamide]"
7,69,"CC(C)N1CCC(N(Cc2cncc(N(C)c3ccncc3)c2)C(=O)/C=C/c2ccc(C(F)(F)F)cc2)CC1 [Example 133, (E)-N-(1-Isopropyl-piperidin-4-yl)-N-[5-(methyl-pyridin-4-yl-amino)-pyridin-3-ylmethyl]-3-(4-trifluoromethyl-phenyl)-acrylamide formate]"
8,58,"Cc1cc(Nc2ccc(CN(CCN(C)C)C(=O)/C=C/c3ccc(C(F)(F)F)cc3)cc2)ccn1 [Example 176, (E)-N-(2-Dimethylamino-ethyl)-N-[4-(2-methyl-pyridin-4-ylamino)-benzyl]-3-(4-trifluoromethyl-phenyl)-acrylamide]"
9,48,"CN(c1ccncc1)c1ccc(CN(C(=O)/C=C/c2ccc(OC(F)(F)F)cc2)C2CCN(Cc3ccccc3)CC2)cc1 [Example 146, (E)-N-(1-Benzyl-piperidin-4-yl)-N-[4-(methyl-pyridin-4-yl-amino)-benzyl]-3-(4-trifluoromethoxy-phenyl)-acrylamide]"
10,44,"CC(=O)n1cc(CN2CCC(N(Cc3ccc(N(C)c4ccncc4)cc3)C(=O)/C=C/c3ccc(C(F)(F)F)cc3)CC2)c2ccccc21 [Example 28, (E)-N-[1-(1-Acetyl-1H-indol-3-ylmethyl)-piperidin-4-yl]-N-[4-(methyl-pyridin-4-yl-amino)-benzyl]-3-(4-trifluoromethyl-phenyl)-acrylamide]"
11,42,"CCCN1CCC(N(Cc2ccc(Nc3ccnc(C)c3)cc2)C(=O)/C=C/c2ccc(C(F)(F)F)cc2)CC1 [Example 33, (E)-N-[4-(2-Methyl-pyridin-4-ylamino)-benzyl]-N-(1-propyl-piperidin-4-yl)-3-(4-trifluoromethyl-phenyl)-acrylamide]"
12,41,"CN(c1ccncc1)c1ccc(CN(C(=O)/C=C/c2ccc(C(F)(F)F)cc2)C2CC3(C2)CN(C2CCCC2)C3)cc1 [Example 74, (E)-N-(2-cyclopentyl-2-azaspiro[3.3]heptan-6-yl)-N-(4-(methyl(pyridin-4-yl)amino)benzyl)-3-(4-(trifluoromethyl)phenyl)acrylamide]"
13,21,"Cc1cnccc1Nc1cccc(CN(C(=O)/C=C/c2ccc(C(F)(F)F)cc2)C2CCN(C(C)C)CC2)c1 [Example 123, (E)-N-(1-Isopropyl-piperidin-4-yl)-N-[3-(3-methyl-pyridin-4-ylamino)-benzyl]-3-(4-trifluoromethyl-phenyl)-acrylamide formate]"
